The results in this text go back to the NIST ThermoML archive (doi:10.1007/s10765-015-1922-3).

For data set [1] the following is noted: Liquid; for mass density: 298.15 K, 101.33 kPa, Vibrating tube method; for Normal boiling temperature: Ebulliometric method (Recirculating still).
Data set [2] is described as follows: refractive index (Na D-line) (dimensionless). The note with it: 298.15 K; 101.33 kPa; Liquid; Standard Abbe refractometry.

± gives the expanded uncertainty stated by the source.

Consider `c1ccccc1` [benzene], for which, in data set [1], the mass density (in general, mass per unit of volume) came to 873.6 ± 0.16 kg/m3 and the Normal boiling temperature is 80.01 ± 0.2 °C. Besides, in data set [2], the refractive index (usually the speed of light in vacuum divided by its phase velocity in the sample) came out at 1.49692 ± 0.00073.
On to `C1CCCCC1` [cyclohexane], for which, in data set [1], the mass density was 773.7 ± 0.2 kg/m3 and the Normal boiling temperature was 80.64 ± 0.2 °C. For the same compound, the refractive index in data set [2] stood at 1.4232 ± 0.00073.
In the same order, the values of `CCCO` [propan-1-ol] are 799.51 ± 0.31 kg/m3, 97.2 ± 0.2 °C and 1.38305 ± 0.00075.
